Measurements from article PMC3256212, “Mechanism and Function of Drosophila capa GPCR: A Desiccation Stress-Responsive Receptor with Functional Homology to Human NeuromedinU Receptor” (PLoS ONE, 2012).
Peptide text beside a SMILES is read from it.

Tested on: tubule principal cells
Set-up: species or system Drosophila melanogaster
Procedure: All lines were maintained on a standard Drosophila diet at 22°C, 55% humidity on a 12∶12 h light∶dark photoperiod. Wild-type flies were obtained from a Canton-S (CS) stock. In order to drive cell- and tissue-specific gene expression of gene(s) of choice in vivo, the GAL4/UAS system was used, in which cell- or tissue-specific GAL4 ‘drivers’ enable binary expression of genes cloned downstream of the GAL4-binding Upstream Activating Sequence. Thus, for intact tubules, principal cell-specific expression can be driven using either c42-GAL4 [16] or Urate-Oxidase-GAL4 [17] drivers in an otherwise normal fly. […] Validation of the capaR RNAi line was confirmed by quantitative Q-RT-PCR using the primers 5′-[…]-3′ and 5′-[…]-3′ (Fig. S1). […]
Drosophila S2 cells, cultured under standard conditions were transiently transfected with the apoaequorin ORF [21] and a receptor ORF construct, and expression induced using CuSO4. […] Bioluminescence recordings were carried out using a Mithras LB940 automated 96-well plate reader (Berthold Technologies) and MikroWin software. […] At the end of each recording samples were disrupted by the addition of 100 µl lysis solution, and the [Ca^2+] concentrations calculated as previously described. […]

Q: For `CC(C)C[C@H](NC(=O)[C@H](Cc1ccccc1)NC(=O)[C@H](Cc1ccc(O)cc1)NC(=O)CNC(=O)[C@H](CCCNC(=N)N)NC(=O)[C@H](CO)NC(=O)[C@H](CCC(N)=O)NC(=O)[C@H](CO)NC(=O)[C@H](C)NC(=O)[C@H](Cc1ccccc1)NC(=O)[C@@H]1CCCN1C(=O)[C@H](CO)NC(=O)[C@H](CCC(N)=O)NC(=O)[C@H](Cc1ccccc1)NC(=O)[C@H](CCC(=O)O)NC(=O)[C@H](CCC(=O)O)NC(=O)[C@H](CC(=O)O)NC(=O)[C@@H](NC(=O)[C@H](CCCNC(=N)N)NC(=O)[C@@H](N)Cc1ccccc1)C(C)C)C(=O)N[C@@H](Cc1ccccc1)C(=O)N[C@@H](CCCNC(=N)N)C(=O)N1CCC[C@H]1C(=O)N[C@@H](CCCNC(=N)N)C(=O)N[C@@H](CC(N)=O)C(N)=O` [NMU-25, reference compound] (H-FRVDEEFQSPFASQSRGYFLFRPRN-NH2), which EC50 is on record?
A: 0.0271 µM
